Results on 2 substances are retold here after publication PMC3609652 (The Biochemical journal, 2013).

As a reminder, the Kd is a measure of binding affinity in units of concentration. High values mean a looser complex, low ones a tighter complex.

For test [1], the target named is IgE^DNP (monoclonal anti-DNP IgE). In words: tryptophan fluorescence quenching titration with monovalent hapten. In kind it is binding.
Test [2] addresses IgE^dansyl (monoclonal anti-dansyl IgE, clone 27–74). The test is described as above. It is filed as binding.

With DNP, the Kd in test [1] was 22 ± 2 nM.

In turn, dansyl returned a Kd in test [2] of 54 ± 4 nM.
